Source: patent publication US20120142645A1, “NEUROACTIVE STEROID COMPOSITIONS AND METHODS OF USE FOR LOWERING CHOLESTEROL” (priority 2009, published 2012)
Entries after “also recorded” stand apart in the source; their conditions may differ. Marks after values point to notes of the source that are not given here.

How the values were obtained:
[1] = test system: patients with schizophrenia or schizoaffective disorder; test: Side effect profile and tolerability (Hillside AE Form); same trial; format: in vivo, human
Source text: During the screening visit (Visit 1), patients received a physical exam, vital signs, and electrocardiogram (EKG), as well as baseline laboratory measures consisting of serum electrolytes, glucose, creatinine, blood urea nitrogen (chemistry 7 panel), liver function tests, complete blood count (CBC), urinalysis, urine toxicology test, thyroid stimulating hormone (TSH), and prolactin, and serum pregnancy test if female. These tests were also repeated at the completion of the study (Visit 6). In addition, patients received an interim EKG 4 weeks post-randomization, as well as a serum pregnancy test if female (Visit 4). Patients also received a chemistry 7 panel, CBC, and liver function tests at Visits 2, 3, 4, and 5 (i.e., at all study visits). Psychiatric symptoms were assessed at baseline using the Scale for the Assessment of Negative Symptoms (Andreasen, 1983), the Positive and Negative Symptom Scale (PANSS; Kay et al., 1987), the Calgary Depression Rating Scale (CDRS; Addington et al., 1990), the Clinical Global Impressions Improvement (CGI-I) and Severity (CGI-S) scales, the Barnes Akathisia Scale (BAS; Barnes, 1989), the Simpson Angus Scale for Extrapyramidal Symptoms (SAS; Simpson & Angus, 1970), the Quality of Life Scale (QOL; Heinrichs et al., 1984), and the Hillside Side Effects Scale. One research nurse with five years of experience in the conduction of schizophrenia clinical trials completed both psychiatric and cognitive assessments throughout the study, and was trained to one point of divergence on each PANSS item.

[2] = test system: patients with schizophrenia or schizoaffective disorder; test: MATRICS/MCCB cognitive battery; same 8-week adjunctive pregnenolone trial; format: in vivo, human; settings: for MATRICS/MCCB Composite score: head prints Raw Scores; for MATRICS/MCCB Composite score / MATRICS/MCCB BACS, symbol coding subtest raw score / MATRICS/MCCB Brief Visuospatial Memory Test-Rev. raw score / MATRICS/MCCB Category fluency test, animal naming raw score / MATRICS/MCCB Continuous Performance Test (CPT), Identical Pairs version-Average d′ raw score / MATRICS/MCCB Hopkins Verbal Learning Test raw score / MATRICS/MCCB Letter-Number Span test raw score / MATRICS/MCCB Mayer-Salovey-Caruso Emotional Intelligence Test, managing emotions branch raw score / MATRICS/MCCB Neuropsychological Assessment Battery, mazes subtest raw score / MATRICS/MCCB Trail Making Test, Part A raw score / MATRICS/MCCB Wechsler Memory Scale, 3rd ed., spatial span subtest raw score: mean, n = 9; for MATRICS/MCCB Composite, difference PG vs placebo in T-score change: column head prints Placebo
Procedure: Study Design and Subjects. Disclosed herein is a placebo-controlled, double-blind, parallel group, randomized trial of adjunctive pregnenolone for the treatment of cognitive and negative symptoms in patients with schizophrenia or schizoaffective disorder. […] Patients received a total of 6 study visits, which took place every two weeks. […] The trial was conducted at a single site, the Durham Veterans Affairs Medical Center in Durham, N.C. The protocol was approved by the local institutional review board and conducted under FDA Investigational New Drug (IND) #71,768. The ClinicalTrials.gov number for this study is NCT00560937.
Cognitive symptoms were assessed by the Brief Assessment of Cognition in Schizophrenia (BAGS; Keefe et al., 2004; Keefe et al., 2008), and the MATRICS Consensus Cognitive Battery (Nuechterlein & Green, 2006; Nuechterlein et al., 2008). It is believed that no clinical trial to date has reported both of these cognitive assessments within the same study. The BAGS and MATRICS batteries were administered two weeks following the screening visit (following the completion of the two-week placebo lead-in phase at Visit 2), and at two 4-week intervals thereafter (at midpoint following randomization at Visit 4 and at the final visit (Visit 6).
The BAGS cognitive battery utilizes the following assessments in the respective targeted domains (Keefe et al., 2004; Keefe et al., 2008): list learning (verbal memory), digit sequencing task (working memory), token motor task (motor speed), verbal fluency (processing speed), symbol coding (attention and processing speed), and the Tower of London test (executive functions/reasoning and problem solving). The MATRICS cognitive battery utilizes the following assessments: Trail Making Test, Part A and the symbol coding subtest of the BAGS (both assess speed of processing), the Hopkins Verbal Learning Test-Revised, immediate recall (three learning trials only) [verbal learning], the Wechsler Memory Scale, 3rd ed., spatial span subtest (working memory, nonverbal), the Letter-Number Span test (working memory, verbal), the Neuropsychological Assessment Battery, mazes subtest (reasoning and problem solving), the Brief Visuospatial Memory Test-Revised (visual learning), the Category Fluency Test (animal naming) [speed of processing], the Mayer-Salovey-Caruso Emotional Intelligence Test, managing emotions branch (social cognition), and the Continuous Performance Test, Identical Pairs version (attention/vigilance) Of note, the symbol coding subtest of the BAGS was administered only once per visit at Visits 2, 4, and 6, although it is a component of both the BAGS and MATRICS cognitive batteries, in order to avoid potentially confounding practice effects.

[3] = change from baseline pre-randomization, n = 9
[4] = change from baseline pre-randomization, n = 9, mild in all subjects
[5] = change from baseline pre-randomization, n = 9, mild in all subjects, listed as pregnenolone
[6] = Week 0 to Week 8, listed as pregnenolone

CC(=O)[C@H]1CC[C@H]2[C@@H]3CC=C4C[C@@H](O)CC[C@]4(C)[C@H]3CC[C@]12C [PG, pregnenolone]
Serious adverse event related to study medication ([1]; 8-week trial): No patients receiving pregnenolone experienced a serious adverse event
Side effect: Akathisia [1, 3]: 0 N (%)
Side effect: All Other Side Effects [1, 3]: 0 N (%)
Side effect: Blurred Vision [1, 3]: 0 N (%)
Side effect: Diarrhea [1, 3]: 0 N (%)
Side effect: Drowsiness [1, 3]: 0 N (%)
Side effect: Excitation/Agitation [1, 3]: 0 N (%)
Side effect: Headache [1, 3]: 0 N (%)
Side effect: Impaired Sexual Performance [1, 3]: 0 N (%)
Side effect: Insomnia [1, 3]: 0 N (%)
Side effect: Joint Pain/Stiffness [1, 3]: 0 N (%)
Side effect: Malaise [1, 3]: 0 N (%)
Side effect: Nasal Congestion [1, 3]: 0 N (%)
Side effect: Peripheral Edema [1, 3]: 0 N (%)
Side effect: Rigidity [1, 3]: 0 N (%)
Side effect: Sweating [1, 3]: 0 N (%)
Side effect: Tremor [1, 3]: 0 N (%)
Side effect: Hypertension ([1]; change from baseline pre-randomization, n = 9, mild (<145/90)): 1 (11%)^b N (%)
Side effect: Cold Extremities [1, 4]: 1 (11%)^a N (%)
Side effect: Decreased Interest in Sex [1, 4]: 1 (11%)^a N (%)
Side effect: Disorientation (to date, address, mayor, or MD name) [1, 4]: 2 (22%)^a N (%)
Side effect: Dry mouth [1, 4]: 1 (11%)^a N (%)
Side effect: Muscle Pain/Stiffness [1, 4]: 1 (11%)^a N (%)
Side effect: Restlessness [1, 4]: 2 (22%)^a N (%)
Side effect: Cold Extremities [1, 5]: one report of mild cold extremities; also recorded: one instance of mild cold extremities
Side effect: Muscle Pain/Stiffness [1, 5]: one report of mild muscle pain/stiffness; also recorded: one instance of mild muscle pain/stiffness
Side effect: Restlessness [1, 5]: two reports of mild restlessness; also recorded: two instances of mild restlessness
Tolerability ([1]; doses up to 500 mg/day, 8 weeks): very well-tolerated
Weight gain, blood pressure, or pulse rate changes ([1]; during the course of the study): did not demonstrate significant weight gain, blood pressure, or pulse rate changes
MATRICS/MCCB Composite score ([2]; Week 0 (baseline)): 29.00
MATRICS/MCCB BACS, symbol coding subtest raw score ([2]; Week 0 (baseline)): 36.89
MATRICS/MCCB Brief Visuospatial Memory Test-Rev. raw score ([2]; Week 0 (baseline)): 20.22
MATRICS/MCCB Category fluency test, animal naming raw score ([2]; Week 0 (baseline)): 18.33
MATRICS/MCCB Continuous Performance Test (CPT), Identical Pairs version-Average d′ raw score ([2]; Week 0 (baseline)): 1.42
MATRICS/MCCB Hopkins Verbal Learning Test raw score ([2]; Week 0 (baseline)): 18.56
MATRICS/MCCB Letter-Number Span test raw score ([2]; Week 0 (baseline)): 11.44
MATRICS/MCCB Mayer-Salovey-Caruso Emotional Intelligence Test, managing emotions branch raw score ([2]; Week 0 (baseline)): 86.89
MATRICS/MCCB Neuropsychological Assessment Battery, mazes subtest raw score ([2]; Week 0 (baseline)): 13.56
MATRICS/MCCB Trail Making Test, Part A raw score ([2]; Week 0 (baseline)): 42.11
MATRICS/MCCB Wechsler Memory Scale, 3rd ed., spatial span subtest raw score ([2]; Week 0 (baseline)): 13.11
MATRICS/MCCB Attention/vigilance domain, change in T-score ([2]; Week 0 to Week 8): 7.56
MATRICS/MCCB Attention/vigilance domain, difference PG vs placebo in T-score change ([2]; Week 0 to Week 8): 6.89
MATRICS/MCCB Composite, change in T-score ([2]; Week 0 to Week 8): 7.00
MATRICS/MCCB Reasoning and Problem Solving domain, change in T-score ([2]; Week 0 to Week 8): 6.22
MATRICS/MCCB Reasoning and Problem Solving domain, difference PG vs placebo in T-score change ([2]; Week 0 to Week 8): 0.00
MATRICS/MCCB Social cognition domain, change in T-score ([2]; Week 0 to Week 8): −0.89
MATRICS/MCCB Social cognition domain, difference PG vs placebo in T-score change ([2]; Week 0 to Week 8): −9.22
MATRICS/MCCB Speed of Processing domain, change in T-score ([2]; Week 0 to Week 8): 5.44
MATRICS/MCCB Speed of Processing domain, difference PG vs placebo in T-score change ([2]; Week 0 to Week 8): 0.78
MATRICS/MCCB Verbal learning domain, change in T-score ([2]; Week 0 to Week 8): 3.44
MATRICS/MCCB Verbal learning domain, difference PG vs placebo in T-score change ([2]; Week 0 to Week 8): 2.67
MATRICS/MCCB Visual learning domain, change in T-score ([2]; Week 0 to Week 8): 3.78
MATRICS/MCCB Visual learning domain, difference PG vs placebo in T-score change ([2]; Week 0 to Week 8): −3.78
MATRICS/MCCB Working memory domain, change in T-score ([2]; Week 0 to Week 8): 5.11
MATRICS/MCCB Working memory domain, difference PG vs placebo in T-score change ([2]; Week 0 to Week 8): 4.00
MATRICS/MCCB Composite, difference PG vs placebo in T-score change ([2]; Week 0 to Week 8): 0.00
MATRICS/MCCB Composite, difference PG vs placebo in T-score change [2, 6]: no difference
MATRICS/MCCB Composite, change in T-score [2, 6]: 7.00±8.87
MATRICS/MCCB Composite score ([2]; Week 4): 33.78
MATRICS/MCCB BACS, symbol coding subtest raw score ([2]; Week 4): 44.78
MATRICS/MCCB Brief Visuospatial Memory Test-Rev. raw score ([2]; Week 4): 21.33
MATRICS/MCCB Category fluency test, animal naming raw score ([2]; Week 4): 18.44
MATRICS/MCCB Continuous Performance Test (CPT), Identical Pairs version-Average d′ raw score ([2]; Week 4): 1.37
MATRICS/MCCB Hopkins Verbal Learning Test raw score ([2]; Week 4): 20.89
MATRICS/MCCB Letter-Number Span test raw score ([2]; Week 4): 12.67
MATRICS/MCCB Mayer-Salovey-Caruso Emotional Intelligence Test, managing emotions branch raw score ([2]; Week 4): 90.60
MATRICS/MCCB Neuropsychological Assessment Battery, mazes subtest raw score ([2]; Week 4): 15.67
MATRICS/MCCB Trail Making Test, Part A raw score ([2]; Week 4): 38.33
MATRICS/MCCB Wechsler Memory Scale, 3rd ed., spatial span subtest raw score ([2]; Week 4): 14.33
MATRICS/MCCB Composite score ([2]; Week 8): 36.00
MATRICS/MCCB BACS, symbol coding subtest raw score ([2]; Week 8): 38.67
MATRICS/MCCB Brief Visuospatial Memory Test-Rev. raw score ([2]; Week 8): 22.33
MATRICS/MCCB Category fluency test, animal naming raw score ([2]; Week 8): 20.44
MATRICS/MCCB Continuous Performance Test (CPT), Identical Pairs version-Average d′ raw score ([2]; Week 8): 1.91
MATRICS/MCCB Hopkins Verbal Learning Test raw score ([2]; Week 8): 21.00
MATRICS/MCCB Letter-Number Span test raw score ([2]; Week 8): 13.11
MATRICS/MCCB Mayer-Salovey-Caruso Emotional Intelligence Test, managing emotions branch raw score ([2]; Week 8): 86.10
MATRICS/MCCB Neuropsychological Assessment Battery, mazes subtest raw score ([2]; Week 8): 17.33
MATRICS/MCCB Trail Making Test, Part A raw score ([2]; Week 8): 34.33/
MATRICS/MCCB Wechsler Memory Scale, 3rd ed., spatial span subtest raw score ([2]; Week 8): 14.22
